#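 Interpolation was linear, between the two tested concentrations surrounding the appropriate level; five concentrations were tested over 48 hours in 96-well plates. TGI denotes the concentration required for complete inhibition of growth.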
# Tests used:
# Experiment in all cases: NCI-60 cell line screen, 48 h
# SK-OV-3 ovarian = tested on: SK-OV-3 ovarian
# TK-10 renal = tested on: TK-10 renal
# U251 CNS = tested on: U251 CNS
# MOLT-4 leukemia = tested on: MOLT-4 leukemia
# OVCAR-3 ovarian = tested on: OVCAR-3 ovarian
# SK-MEL-28 melanoma = tested on: SK-MEL-28 melanoma
# SW-620 colon = tested on: SW-620 colon
# RPMI-8226 leukemia = tested on: RPMI-8226 leukemia
# UO-31 renal = tested on: UO-31 renal
# XF 498 CNS = tested on: XF 498 CNS
# M19-MEL melanoma = tested on: M19-MEL melanoma
# SNB-75 CNS = tested on: SNB-75 CNS
# HOP-92 NSCLC = tested on: HOP-92 NSCLC
# NCI-H460 lung = tested on: NCI-H460 lung
# DLD-1 colon = tested on: DLD-1 colon
# NCI-H23 lung = tested on: NCI-H23 lung
# SF-268 CNS = tested on: SF-268 CNS
# SNB-19 CNS = tested on: SNB-19 CNS
# RXF 393 renal = tested on: RXF 393 renal
# HCC-2998 colon = tested on: HCC-2998 colon
# COLO 205 colon = tested on: COLO 205 colon
# HT29 colon = tested on: HT29 colon
# CAKI-1 renal = tested on: CAKI-1 renal
# OVCAR-5 ovarian = tested on: OVCAR-5 ovarian
# M14 melanoma = tested on: M14 melanoma
# KM20L2 colon = tested on: KM20L2 colon
# NCI-H226 lung = tested on: NCI-H226 lung
# DMS 273 small cell lung = tested on: DMS 273 small cell lung
# SK-MEL-5 melanoma = tested on: SK-MEL-5 melanoma
# K-562 leukemia = tested on: K-562 leukemia
# UACC-62 melanoma = tested on: UACC-62 melanoma
# IGROV1 ovarian = tested on: IGROV1 ovarian
# SN12C renal = tested on: SN12C renal
# KM12 colon = tested on: KM12 colon
# HL-60(TB) leukemia = tested on: HL-60(TB) leukemia
# MALME-3M melanoma = tested on: MALME-3M melanoma
# SNB-78 CNS = tested on: SNB-78 CNS
# DMS 114 small cell lung = tested on: DMS 114 small cell lung
# HCT-15 colon = tested on: HCT-15 colon
# UACC-257 melanoma = tested on: UACC-257 melanoma
# LOX IMVI melanoma = tested on: LOX IMVI melanoma
# LXFL 529 NSCLC = tested on: LXFL 529 NSCLC
# OVCAR-8 ovarian = tested on: OVCAR-8 ovarian
# CCRF-CEM leukemia = tested on: CCRF-CEM leukemia
# NCI-H522 lung = tested on: NCI-H522 lung
# A549 NSCLC = tested on: A549 NSCLC
# SF-295 CNS = tested on: SF-295 CNS
# 786-0 renal = tested on: 786-0 renal
# SF-539 CNS = tested on: SF-539 CNS
# HOP-62 NSCLC = tested on: HOP-62 NSCLC
# SR leukemia = tested on: SR leukemia
# ACHN renal = tested on: ACHN renal
# OVCAR-4 ovarian = tested on: OVCAR-4 ovarian
# HCT-116 colon = tested on: HCT-116 colon
# SK-MEL-2 melanoma = tested on: SK-MEL-2 melanoma
# HOP-18 NSCLC = tested on: HOP-18 NSCLC
# EKVX NSCLC = tested on: EKVX NSCLC
# A498 renal = tested on: A498 renal
compound,measurement,setting,value
O=C(N/N=C(\C1=Nc2ccc(Cl)cc2NC1O)C(O)/C=C/c1ccccc1)c1ccncc1 (configuration not stated),TGI,SK-OV-3 ovarian,> 100 µM
same,TGI,TK-10 renal,> 100 µM
same,TGI,U251 CNS,> 100 µM
same,TGI,MOLT-4 leukemia,> 100 µM
same,TGI,OVCAR-3 ovarian,> 100 µM
same,TGI,SK-MEL-28 melanoma,> 100 µM
same,TGI,SW-620 colon,> 100 µM
same,TGI,RPMI-8226 leukemia,> 100 µM
same,TGI,UO-31 renal,> 100 µM
same,TGI,XF 498 CNS,> 100 µM
same,TGI,M19-MEL melanoma,> 100 µM
same,TGI,SNB-75 CNS,> 100 µM
same,TGI,HOP-92 NSCLC,> 100 µM
same,TGI,NCI-H460 lung,> 100 µM
same,TGI,DLD-1 colon,> 100 µM
same,TGI,NCI-H23 lung,> 100 µM
same,TGI,SF-268 CNS,> 100 µM
same,TGI,SNB-19 CNS,> 100 µM
same,TGI,RXF 393 renal,> 100 µM
same,TGI,HCC-2998 colon,> 100 µM
same,TGI,COLO 205 colon,> 100 µM
same,TGI,HT29 colon,> 100 µM
same,TGI,CAKI-1 renal,> 100 µM
same,TGI,OVCAR-5 ovarian,> 100 µM
same,TGI,M14 melanoma,> 100 µM
same,TGI,KM20L2 colon,> 100 µM
same,TGI,NCI-H226 lung,> 100 µM
same,TGI,DMS 273 small cell lung,> 100 µM
same,TGI,SK-MEL-5 melanoma,> 100 µM
same,TGI,K-562 leukemia,> 100 µM
same,TGI,UACC-62 melanoma,> 100 µM
same,TGI,IGROV1 ovarian,> 100 µM
same,TGI,SN12C renal,> 100 µM
same,TGI,KM12 colon,> 100 µM
same,TGI,HL-60(TB) leukemia,> 100 µM
same,TGI,MALME-3M melanoma,> 100 µM
same,TGI,SNB-78 CNS,> 100 µM
same,TGI,DMS 114 small cell lung,> 100 µM
same,TGI,HCT-15 colon,> 100 µM
same,TGI,UACC-257 melanoma,> 100 µM
same,TGI,LOX IMVI melanoma,> 100 µM
same,TGI,LXFL 529 NSCLC,> 100 µM
same,TGI,OVCAR-8 ovarian,> 100 µM
same,TGI,CCRF-CEM leukemia,> 100 µM
same,TGI,NCI-H522 lung,> 100 µM
same,TGI,A549 NSCLC,> 100 µM
same,TGI,SF-295 CNS,> 100 µM
same,TGI,786-0 renal,> 100 µM
same,TGI,SF-539 CNS,> 100 µM
same,TGI,HOP-62 NSCLC,> 100 µM
same,TGI,SR leukemia,> 100 µM
same,TGI,ACHN renal,> 100 µM
same,TGI,OVCAR-4 ovarian,> 100 µM
same,TGI,HCT-116 colon,> 100 µM
O=[N+]([O-])/C=C/c1ccc(Cl)cc1Cl,TGI,U251 CNS,20.5 µM
same,TGI,MOLT-4 leukemia,45.7 µM
same,TGI,OVCAR-3 ovarian,53.6 µM
same,TGI,SK-MEL-28 melanoma,30.3 µM
same,TGI,SW-620 colon,37.5 µM
same,TGI,RPMI-8226 leukemia,5.66 µM
same,TGI,UO-31 renal,29.8 µM
same,TGI,M19-MEL melanoma,19.5 µM
same,TGI,SNB-75 CNS,34.8 µM
same,TGI,HOP-92 NSCLC,31 µM
same,TGI,NCI-H460 lung,37.4 µM
same,TGI,DLD-1 colon,84.4 µM
same,TGI,NCI-H23 lung,42.9 µM
same,TGI,SF-268 CNS,44.5 µM
same,TGI,SNB-19 CNS,32.4 µM
same,TGI,HCC-2998 colon,29 µM
same,TGI,COLO 205 colon,38.9 µM
same,TGI,HT29 colon,21.8 µM
same,TGI,CAKI-1 renal,29.8 µM
same,TGI,OVCAR-5 ovarian,46.3 µM
same,TGI,M14 melanoma,24.4 µM
same,TGI,KM20L2 colon,42.1 µM
same,TGI,NCI-H226 lung,32.2 µM
same,TGI,DMS 273 small cell lung,29.7 µM
same,TGI,SK-MEL-5 melanoma,29.4 µM
same,TGI,K-562 leukemia,9.94 µM
same,TGI,UACC-62 melanoma,31.3 µM
same,TGI,IGROV1 ovarian,29.4 µM
same,TGI,KM12 colon,29.6 µM
same,TGI,HL-60(TB) leukemia,25.3 µM
same,TGI,MALME-3M melanoma,32.6 µM
same,TGI,DMS 114 small cell lung,35.8 µM
same,TGI,HCT-15 colon,46.4 µM
same,TGI,UACC-257 melanoma,27.4 µM
same,TGI,LXFL 529 NSCLC,27.1 µM
same,TGI,OVCAR-8 ovarian,67.7 µM
same,TGI,CCRF-CEM leukemia,20.8 µM
same,TGI,NCI-H522 lung,29.8 µM
same,TGI,A549 NSCLC,48.5 µM
same,TGI,SF-295 CNS,32 µM
same,TGI,SK-MEL-2 melanoma,40.2 µM
same,TGI,786-0 renal,42.2 µM
same,TGI,SF-539 CNS,33 µM
same,TGI,HOP-62 NSCLC,28.6 µM
same,TGI,SR leukemia,47 µM
same,TGI,ACHN renal,34.3 µM
same,TGI,OVCAR-4 ovarian,34.8 µM
same,TGI,HCT-116 colon,13 µM
NC(CCCCNCc1ccccc1O)C(=O)O (configuration not stated),TGI,SK-OV-3 ovarian,> 100 µM
same,TGI,HOP-18 NSCLC,> 100 µM
same,TGI,TK-10 renal,> 100 µM
same,TGI,U251 CNS,> 100 µM
same,TGI,MOLT-4 leukemia,> 100 µM
same,TGI,OVCAR-3 ovarian,> 100 µM
same,TGI,SK-MEL-28 melanoma,> 100 µM
same,TGI,SW-620 colon,> 100 µM
same,TGI,RPMI-8226 leukemia,> 100 µM
same,TGI,UO-31 renal,> 100 µM
same,TGI,M19-MEL melanoma,> 100 µM
same,TGI,SNB-75 CNS,> 100 µM
same,TGI,HOP-92 NSCLC,> 100 µM
same,TGI,NCI-H460 lung,> 100 µM
same,TGI,DLD-1 colon,> 100 µM
same,TGI,NCI-H23 lung,> 100 µM
same,TGI,SF-268 CNS,> 100 µM
same,TGI,SNB-19 CNS,> 100 µM
same,TGI,HCC-2998 colon,> 100 µM
same,TGI,COLO 205 colon,> 100 µM
same,TGI,HT29 colon,> 100 µM
same,TGI,CAKI-1 renal,> 100 µM
same,TGI,OVCAR-5 ovarian,> 100 µM
same,TGI,M14 melanoma,> 100 µM
same,TGI,KM20L2 colon,> 100 µM
same,TGI,NCI-H226 lung,> 100 µM
same,TGI,DMS 273 small cell lung,> 100 µM
same,TGI,SK-MEL-5 melanoma,> 100 µM
same,TGI,K-562 leukemia,> 100 µM
same,TGI,UACC-62 melanoma,> 100 µM
same,TGI,IGROV1 ovarian,> 100 µM
same,TGI,SN12C renal,> 100 µM
same,TGI,KM12 colon,> 100 µM
same,TGI,HL-60(TB) leukemia,> 100 µM
same,TGI,MALME-3M melanoma,> 100 µM
same,TGI,SNB-78 CNS,> 100 µM
same,TGI,DMS 114 small cell lung,> 100 µM
same,TGI,HCT-15 colon,> 100 µM
same,TGI,UACC-257 melanoma,> 100 µM
same,TGI,LOX IMVI melanoma,> 100 µM
same,TGI,LXFL 529 NSCLC,> 100 µM
same,TGI,EKVX NSCLC,> 100 µM
same,TGI,OVCAR-8 ovarian,> 100 µM
same,TGI,CCRF-CEM leukemia,> 100 µM
same,TGI,NCI-H522 lung,> 100 µM
same,TGI,A498 renal,> 100 µM
same,TGI,A549 NSCLC,> 100 µM
same,TGI,SF-295 CNS,> 100 µM
same,TGI,SK-MEL-2 melanoma,> 100 µM
same,TGI,786-0 renal,> 100 µM
same,TGI,SF-539 CNS,> 100 µM
same,TGI,HOP-62 NSCLC,> 100 µM
same,TGI,ACHN renal,> 100 µM
same,TGI,OVCAR-4 ovarian,> 100 µM
same,TGI,HCT-116 colon,> 100 µM

# Reference: PubChem BioAssay (NCI)
